Reference: ChEMBL document CHEMBL3507680, “University of Dundee, Gates Library screen for HepG2 cell viability”

Assay: Human HepG2 cell viability assay in 384 well format
Assay type: toxicity, cell-based
Parameters: dose 125 nL, time 70.5 hour; cytotoxicity at 70.5 h: concentration not given beside the values
Conditions: HepG2 cells, read-out: Inhibition

| Compound | cytotoxicity at 70.5 h [%] |
| --- | --- |
| CCOCCCNC(=O)c1cccn1Cc1cccnc1 | -4.46 |
| CC(C)(C)c1cc(NC(=O)CN2CCC(N3CCNC3=O)CC2)on1 | 17 |
| CN(C)CCNC(=O)c1ccc(S(=O)(=O)N[C@@H]2CCNC2)cc1 | -13.7 |
| Cc1cccc(CN2CC[C@@H]3[C@@H]2CCN3Cc2cccs2)n1 | -5.52 |
| CC(C)c1nc(CN(C)Cc2ncccc2C(=O)O)cs1 | 4.17 |
| C[C@H]1CN(c2ccccn2)C[C@@]12CCN(c1cccnc1)C2=O | -2.67 |
| COc1ccc2c(=O)ccn(CC(=O)O)c2c1 | 1.58 |
| O=C(Nc1cnn(CCN2CCOCC2)c1)c1ccccc1Cl | 0.235 |
| CNC(=O)[C@@H]1CN(C(=O)C(C)C)C[C@H]1c1ccnc(N2CCCC2)n1 | -3.61 |
| CSCCCN1CCc2nc(N(C)C)nc(N3CCC(O)CC3)c2C1 | -6.06 |
| O=C(C1CCCC1)N1CC2(CCN(C3COC3)C2)OCc2ccccc21 (stereo not drawn) | -17.3 |
| COCC1CN(Cc2c(C)noc2C)Cc2cn(C)nc21 (stereo not drawn) | 10.9 |
| O=C1[C@H]2CN(S(=O)(=O)C3CC3)C[C@H]2CN1Cc1cccnc1 | -8.9 |
| Cc1cc2n(n1)CC(CNCc1cnn(-c3ccccc3)c1)CN2 (stereo not drawn) | -3.87 |
| CCC(Nc1nc(C)nc2onc(C)c12)c1nc(C)c(C)s1 (stereo not drawn) | 24.7 |
| Cc1nccn1CCCC(=O)N1CCC(N(C)c2cccnn2)CC1 | -7.52 |
| CNCC(=O)Nc1cccc(-c2cnc(NCCO)nc2)c1 | -1.04 |
| O=C1CC[C@H]2[C@H](CCN2C(=O)C2CCCO2)N1Cc1cccnc1 (stereo partly drawn) | -6.99 |
| CN1CCC2(CC1)CN(C(=O)c1onc3ccccc13)CCCN2C | 26.8 |
| Cc1nccn1CCC1CCCCN1Cc1ccncc1 (stereo not drawn) | 3.75 |
| Cc1nccc(N[C@H]2CN(CCS(C)(=O)=O)C[C@@H]2C2CC2)n1 | 18.1 |
| CCC(O)Cn1nc(-c2ccc(C(=O)O)cc2)cc1-c1cccc(F)c1 (stereo not drawn) | 20.1 |
| Cc1sc2nc(CCN)nc(N(C)CCCC3CCCO3)c2c1C (stereo not drawn) | 16.5 |

| Compound | cytotoxicity at 70.5 h [%] |
| --- | --- |
| Cc1nc(CN2CCC(N(C)Cc3noc(C4CC4)n3)C2)oc1C (stereo not drawn) | 4.91 |
| Cc1cnn(C(C)C2CC2)c1NC(=O)c1ccc(Cn2cnnn2)cc1 (stereo not drawn) | -10.2 |
| CS(=O)(=O)c1ccc(CN2C[C@@H]3OCC(=O)N(CC(N)=O)[C@@H]3C2)cc1 | -4.08 |
| Cc1cc2ccccc2n1CCC(=O)N1CCC[C@H]1C(N)=O | -6.97 |
| CC(C)CCN1CCc2[nH]nc(C(=O)N3CCCC3C)c2C1 (stereo not drawn) | -6.21 |
| CCc1ccc(C(=O)NC(C)c2ccc(S(C)(=O)=O)c(F)c2)o1 (stereo not drawn) | 13.1 |
| O=C(NCc1nncn1C1CC1)c1ccccc1OCC1CC1 | -5.93 |
| CC(C)n1nc(CN2CCCC2=O)c2c1CN(C(=O)c1ccco1)C2 | -5.68 |
| O=C(O)CCc1cc2n(n1)CCN(Cc1cnc(N3CCCC3)nc1)C2 | -2.38 |
| Cc1csc(C2(NC(=O)CCNC(=O)C(C)(C)C)CCCC2)n1 | 0.031 |
| CC(C)Cn1c2c(ccc1=O)CC(NC(=O)c1ccsc1)CC2 (stereo not drawn) | -11.8 |
| O=S(=O)(NC[C@H]1C[C@@H]2CCN1C[C@@H]2CN1CCCC1)c1ccc(Cl)cc1 | 17 |
| CCC(O)Cn1cc(C2=CCN(Cc3cc(O)nc(C)n3)CC2)cn1 (stereo not drawn) | 10.8 |
| CCCOCC(=O)Nc1ncc(I)cc1C | 4.92 |
| CCN1CCN(C(=O)c2cnc(Cc3c(Cl)cccc3Cl)nc2O)CC1 | -4.18 |
| CC(=O)Nc1ncc(S(=O)(=O)Nc2cccc(C)c2)s1 | -12.5 |
| CC(=O)N1CCC2(C1)C(=O)N(CC1CC1)c1ccccc12 (stereo not drawn) | -8.89 |
| CNc1nc(N2CCN(C3CCCCC3)C(CCO)C2)nc2c1CCC2 (stereo not drawn) | -3.63 |
| COCCN(Cc1nc2c(cnn2C)c(=O)[nH]1)C(C)c1ccccc1 (stereo not drawn) | -2.95 |
| O=C(CSCc1ccncc1)N(Cc1ccsc1)C1CC1 | 0.347 |
| Cc1oc(C(C)C)cc1C(=O)N1CCN(c2cnn(C)c(=O)c2)CC1 | -3.48 |
| CCS(=O)(=O)N1CCOC2(COCCN(c3nccs3)C2)C1 (stereo not drawn) | -8.91 |
| CCOc1ccc(C(=O)CCC(=O)N(C)Cc2cnccn2)cc1C | 10.8 |

| Compound | cytotoxicity at 70.5 h [%] |
| --- | --- |
| Cc1cc(-c2cccc(C(=O)O)c2)nc(C2CCN(C(C)C)CC2)n1 | -3.8 |
| CC(C)=CCN1CCOC(Cn2nc(C)cc2C)C1 (stereo not drawn) | 15.4 |
| CCN1CC2(CCC1=O)CCN(Cc1nncn1C(C)C)CC2 | -5.12 |
| O=C(C1CNCCN1C(=O)CCOc1ccccc1)N1CCOCC1 (stereo not drawn) | 4.76 |
| COC(=O)CSc1nnc(CCNC(=O)OC(C)(C)C)o1 | -4.92 |
| O=C(NCc1ccccn1)C1=NN(c2ccccc2)C(=O)CN1 | -16.4 |
| COc1cccc(CNC[C@@]2(COc3cccnc3)C[C@@H](O)[C@@H](O)C2)c1 | -3.95 |
| Cc1nc(C(=O)N2CCCC2c2cnn(C)c2)ccc1C#N (stereo not drawn) | 20.3 |
| CC(C)C(=O)N1CCC(Cc2nccnc2Nc2ccccn2)CC1 | -5.25 |
| CNC(=O)NC(=O)CCSc1ccccc1C | -0.594 |
| Cn1nc(Cn2ccnc2)c2c1CN(c1nccs1)C2 | -5.95 |
| Cc1cc(CNc2cc(Cl)ccc2C)no1 | -11.6 |
| Cn1cnnc1C1CCCN(C(=O)COCc2ccccc2)C1 (stereo not drawn) | -2.8 |
| CC(C)NC(=O)N1CCN(C(=O)C2CCOCC2)CC2(CNC(=O)C2)C1 (stereo not drawn) | -16 |
| Cc1cnn(CCNCc2ccc(OCc3ccccn3)cc2)c1 | 2.45 |
| CCc1n[nH]c(C(=O)N2CCN(c3ccc4ccccc4c3)CC2)c1C | -6.66 |
| COc1ccc(C(=O)N2CCCC2c2noc(C(C)C)n2)nn1 (stereo not drawn) | -4.87 |
| CN1CC[C@H](c2ccccc2)[C@@H]2[C@H]1CCCCN2C(=O)c1cnccn1 | -8.44 |
| CC(C)(C)C(=O)NCC(=O)Nc1cccnc1 | -6.42 |
| CCCn1cc(C(=O)NCc2nnc(-c3ccc(C)nc3)o2)c(C)n1 | -1.21 |
| CCC(=O)N1CCC(Cc2cc(Nc3ncccn3)ncn2)CC1 | -4.23 |
| CC(C)Cc1cc(C(=O)N2CCC(N3CCCC3)CC2)cc(O)n1 | -12.3 |
| Cc1ccc(CC2COc3ccccc3C2)c(N)n1 (stereo not drawn) | 16.3 |

| Compound | cytotoxicity at 70.5 h [%] |
| --- | --- |
| O=C(NCCNc1ncccn1)N1CCN(c2nccs2)CC1 | -2.7 |
| CN1CCCC(c2cccc(CCC(=O)NCc3ccccn3)n2)C1 (stereo not drawn) | -7.64 |
| Cc1nsc(C(=O)NCCc2ccccc2)n1 | -8.39 |
| CCN(CC)S(=O)(=O)N1C[C@@H](O)[C@H](Oc2cccc(F)c2)C1 | -6.35 |
| CS(=O)(=O)N1CCCC1c1cccc(Cc2ccccc2F)n1 (stereo not drawn) | -6.97 |
| Cc1ccc(NC2COC3(CCN(CC(C)C)CC3)C2)nn1 (stereo not drawn) | 27.8 |
| CCN(CC)Cc1ccccc1NC(=O)N(C)Cc1ccc(OC)cc1 | -15.6 |
| CC(C)C(O)CCNC(=O)Nc1cc(F)ccc1-n1cccn1 (stereo not drawn) | 14.9 |
| CN(Cc1cnn(C)c1)C(=O)NCCc1ccc2c(c1)OCO2 | -1.01 |
| CC1CCC(NCCCN2CCOCC2)CC1 (stereo not drawn) | -6.93 |
| Nc1nc2nc(C3CCCN(C(=O)c4cncs4)C3)ccc2s1 (stereo not drawn) | 0.556 |
| NC(=O)C1(c2cnccn2)CCCN1Cc1ccccn1 (stereo not drawn) | -3.76 |
| O=C(NCCN1CCOCC1)c1ccn(COc2ccc(F)cc2)n1 | -5.85 |
| Cc1ccc(OCCCC(=O)NC(C)c2ccc(S(N)(=O)=O)cc2)cc1 (stereo not drawn) | 34.1 |
| O=C1CC(Nc2ccc3nccnc3n2)CN1c1ccccc1 (stereo not drawn) | -2.9 |
| O=C(O)CSc1nnc(-c2cn[nH]c2)n1-c1ccccc1Cl | 17.6 |
| CC1CN(C2CCN(Cc3nccn3CC(F)(F)F)CC2)CCO1 (stereo not drawn) | -9.54 |
| COc1cccc2c1ccn2CCC(=O)N1CCC(C(=O)O)CC1 | -5.23 |
| CSc1[nH]nc(NC(=O)c2ccccc2)c1C#N | -10 |
| CC(C)c1nnc2n1CCN(CC(=O)N1CCc3sccc3C1)C2 | -6.79 |
| O=C(C1CCCCC1)N1CCCC2(CCN(c3cnccn3)CC2)C1 | 23.6 |
| Cc1cnc(CN2CCOC(CNc3cccnn3)C2)cn1 (stereo not drawn) | -8.2 |
| Cc1nc(CN2CCO[C@H]3CN(C(=O)c4ccncc4)C[C@H]32)cs1 | 6.5 |

| Compound | cytotoxicity at 70.5 h [%] |
| --- | --- |
| COc1ccc(-c2ccc(C(=O)NS(C)(=O)=O)c(F)c2)c(F)c1 | -6.13 |
| CCN1CC(COC(=O)c2ccccc2Cl)CC1=O (stereo not drawn) | 7.47 |
| N#Cc1cc(CSCCN2CCOCC2)ccc1F | -13.8 |
| O=C(NCC1CC1)Nc1cnc2ccc(F)cc2c1O | -3.07 |
| O=C(c1cnccn1)N1CCO[C@H]2[C@H](OCc3cccnc3)CC[C@@H]21 | -6.93 |
| COc1ncccc1CN1CC[C@@]2(O)CCN(C(=O)C3CCC3)C[C@H]2C1 | -5.11 |
| CN(C)[C@@H]1CCN(S(C)(=O)=O)[C@H]1Cc1ccccc1 | 1.53 |
| c1cc(CN2CCOCC3(CCNCC3)C2)ccn1 | 23 |
| CN(C(=O)c1ccc(OCC(F)F)nc1)c1ccc2c(c1)CCO2 | -4.77 |
| Cc1cnn(CC2CN(CC(=O)N3CCc4ccccc43)CCO2)c1 (stereo not drawn) | -10.9 |
| COCCN1C[C@@H]2[C@@H](OC)CCN(C(=O)c3cccc(OC)c3)[C@@H]2C1 | 2 |
| CC1CCN(CCNC(=O)C2CCN(C(=O)C3CC3)CC2)CC1 | -3.28 |
| Cc1nn(Cn2ccc(C(=O)N3CCOCC3)n2)c(C)c1Cl | -9.86 |
| O=C1CC(NS(=O)(=O)N2CCOCC2)CN1Cc1ccccc1 (stereo not drawn) | -5.68 |
| Cc1nc(C)c(CC(=O)NCc2ccc(F)cc2F)s1 | -11.3 |
| CCCC(=O)N1CCC(Cc2ccccc2-c2ccccc2)(C(N)=O)C1 (stereo not drawn) | -6.16 |
| CCc1nc(NCC(=O)N2CCOCC2)c2c(n1)c(C)nn2CC | -9.61 |
| COCC(=O)NCC[C@H]1CC(C)(C)Oc2ccccc21 | -3.02 |
| COCc1ccccc1C(=O)N1CCN(C2=NCC(C)(C)S2)CC1 | -5.17 |
| Cc1c(NC(=O)NC2CN3CCC2CC3)cccc1C(=O)N1CCCC1 (stereo not drawn) | 37.5 |
| O=C(NC1CCCCC1)N1CCn2c(nnc2C2CCCN2)C1 (stereo not drawn) | -12.5 |
